Test results reported in patent publication US20240315993A1, “ANTIPARASITIC COMPOUNDS” (Intervet Inc., priority 2021, published 2024).

Experiments:
[1] = test system: Copepodids (juvenile sea lice stage of Lepeophtheirus salmonis); experiment: Juvenile sea lice contact assay; details: Lepeophtheirus salmonis, 24 h, read-out: Sea lice inhibition (% of dead+damaged copepodids)
Procedure: Copepodids (juvenile sea lice stage of Lepeophtheirus salmonis) were exposed to seawater spiked with declining concentrations of a test compound (dissolved in a DMSO sea-water mixture). Sea lice inhibition (% of dead+damaged copepodids) was assessed after approximately 24 hours of continuous exposure. The vitality of used parasites was confirmed in a negative (solvent) control group.

[2] = test system: Mobile stages of sea lice (pre-adults, adults of Lepeophtheirus salmonis); experiment: Adult sea lice contact assay; details: read-out: EC50 (sea lice inhibition, dead+damaged)
Procedure: Mobile stages of sea lice (i.e., pre-adults, adults of Lepeophtheirus salmonis) were exposed to seawater spiked with declining concentrations of a test compound (dissolved in a PEG sea-water mixture). Sea lice inhibition (% of dead+damaged sea lice) was assessed after approximately 1 and 24 hours of continuous exposure in comparison to a negative (solvent) control group.

[3] = test system: juvenile soft ticks (Ornithodoros moubata); experiment: Guinea pig - efficacy against argaside tick; format: in vivo
Summary of the method: (§1)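 Guinea pigs given 5 mg/kg test compound orally (gavage) or s.c. in 10% DMF/emulsifier plus 90% water for injection, with local co-infestations of Ornithodoros moubata juveniles and Cimex lectularius at several post-treatment times. Engorged parasites scored dead/damaged about 24 h after collection; % inhibition versus pretreatment baseline by modified Schneider-Orelli formula.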

[4] = test system: bed bugs (Cimex lectularius); experiment: Guinea pig - efficacy against bed bug; format: in vivo
Summary of the method: as §1

[5] = test system: Rhipicephalus sanguineus or Haemaphysalis elliptica ticks; experiment: Dog - efficacy against ticks; format: in vivo
Procedure: (§2) Beagle dogs were infested (whole body) with 80 Ctenocephalides felis fleas and 50 Rhipicephalus sanguineus or Haemaphysalis elliptica ticks (sex ratio 1:1) two days before the treatment day (Day 0), and repeatedly thereafter. Dogs of treatment groups were treated with 10 mg/kg bodyweight of a test compound orally (compound weighed in gelatin capsule), topically (spot-on, DMA 92%/DEET 8%) or subcutaneously (PEG 200 90%/water for injection 10%). Dogs of the negative control group received only an empty gelatin capsule orally and the spot-on formulation excipients topically.
(§3) Compounds with efficacy ≥80 percent were found active.

[6] = test system: Ctenocephalides felis fleas; experiment: Dog - efficacy against fleas; format: in vivo; details: for therapeutic efficacy against fleas (active = efficacy ≥80 percent): D2
Procedure: as §2, §3

[7] = test system: Rhipicephalus microplus; experiment: Cattle - efficacy against one-host tick; format: in vivo
Summary of the method: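 Cattle infested whole-body with up to 3000 R. microplus larvae two or three times weekly around Day 0, then given 1 mg/kg subcutaneously or topically (spray or pour-on); controls got excipients only. Engorged females dropping were counted daily; efficacy by ADEQ per WAAVP guidelines, onset/duration as first/last day ≥80%.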

[8] = test system: Dermacenter variabilis; experiment: Cattle - efficacy against multi-host ticks (Dermacenter variabilis); format: in vivo
Procedure: (§4) Cattle were treated subcutaneously or topically (pour-on) at a dose of 5 mg/kg bodyweight of a test compound (Day 0). As subcutaneous formulation NMP 60%/PEG300 40% was used, and as pour-on formulation DMA 92%/DEET 8% was used. Cattle of the negative control group received only the formulation excipients of both formulations (SC, pour-on).
(§5) Cattle were locally infested with 30 to 40 unfed adult ticks each of Rhipicephalus appendiculatus and Dermacenter variabilis (for both species sex ratio 1:1), by placing the ticks in an ear sleeve (R. appendiculatus) or a stockinet patch attached to the body side (D. variabilis) once before treatment, and at different time points after treatment. Free (i.e., non-attached ticks) were removed from ear sleeves/stockinet patches two days after each infestation and were excluded from the efficacy calculation.
as §3

[9] = test system: Rhipicephalus appendiculatus; experiment: Cattle - efficacy against multi-host ticks (Rhipicephalus appendiculatus); format: in vivo
Procedure: as §4, §5, §3

[10] = 5 mg/kg subcutaneous, after 7 days
[11] = 5 mg/kg subcutaneous, after 10 days
[12] = 1 mg/kg topical (Compound 4: spray solution; others: DMA 92%/DEET 8% pour-on)
[13] = 5 mg/kg subcutaneous, re-infested after 7 days
[14] = 5 mg/kg subcutaneous, re-infested after 14 days
[15] = 5 mg/kg subcutaneous, re-infested after 21 days
[16] = 5 mg/kg subcutaneous, re-infested after 28 days
[17] = 5 mg/kg subcutaneous, therapeutic, Day 2
[18] = 5 mg/kg topical pour-on, re-infested after 7 days
[19] = 5 mg/kg topical pour-on, re-infested after 14 days
[20] = 5 mg/kg topical pour-on, re-infested after 21 days
[21] = 5 mg/kg topical pour-on, therapeutic, Day 2
[22] = 5 mg/kg, both administration routes (topical, subcutaneous)

Structure (SMILES): O=C(Nc1ccc(F)cc1F)c1cc(NC(=O)[C@H]2[C@H](c3ccc(F)c(Cl)c3)C2(Cl)Cl)ccc1Cl [Compound 197]
- inhibition at 0.001 µM [1]: 100%
- EC50 [2]: 10 to 25 nM
- activity against tick nymphs (≥80% inhibition, killed+damaged) ([3]; 5 mg/kg oral, Day 0): immediate activity
- activity against tick nymphs (≥80% inhibition, killed+damaged) ([3]; 5 mg/kg oral, after 7 days): activity
- activity against tick nymphs (≥80% inhibition, killed+damaged) ([3]; 5 mg/kg subcutaneous, Day 0): immediate activity
- activity against tick nymphs (≥80% inhibition, killed+damaged) [3, 10]: activity
- activity against tick nymphs (≥80% inhibition, killed+damaged) [3, 11]: activity
- duration of efficacy, subcutaneous compared with oral administration ([3]; 5 mg/kg, ticks and bed bugs): longer duration of efficacy
- activity against bed bugs (≥80% inhibition, killed+damaged) ([4]; 5 mg/kg oral, Day 0): immediate activity
- activity against bed bugs (≥80% inhibition, killed+damaged) ([4]; 5 mg/kg oral, after 7 days): activity
- activity against bed bugs (≥80% inhibition, killed+damaged) ([4]; 5 mg/kg subcutaneous, Day 0): immediate activity
- activity against bed bugs (≥80% inhibition, killed+damaged) [4, 10]: activity
- activity against bed bugs (≥80% inhibition, killed+damaged) [4, 11]: activity
- efficacy against ticks in dogs (conclusion) ([5]; 10 mg/kg): therapeutic efficacy
- therapeutic efficacy against ticks (active = efficacy ≥80 percent) ([5]; 10 mg/kg oral, D2): active
- active against ticks up to (efficacy ≥80 percent) ([5]; 10 mg/kg topical spot-on, repeated infestations): 70/72
- efficacy against fleas in dogs (conclusion) ([6]; 10 mg/kg): therapeutic efficacy
- therapeutic efficacy against fleas (active = efficacy ≥80 percent) ([6]; 10 mg/kg oral): active
- therapeutic efficacy against fleas (active = efficacy ≥80 percent) ([6]; 10 mg/kg topical spot-on): active
- duration of efficacy (last Day with efficacy ≥80 percent) ([7]; 1 mg/kg subcutaneous): ≥ 120 days
- onset of efficacy (first Day with efficacy ≥80 percent) ([7]; 1 mg/kg subcutaneous): 3 days
- duration of efficacy (last Day with efficacy ≥80 percent) [7, 12]: 47 days
- onset of efficacy (first Day with efficacy ≥80 percent) [7, 12]: 2 days
- efficacy ≥80 percent against Dermacenter variabilis [8, 13]: prophylactic efficacy
- efficacy ≥80 percent against Dermacenter variabilis [8, 14]: prophylactic efficacy
- efficacy ≥80 percent against Dermacenter variabilis [8, 15]: prophylactic efficacy
- efficacy ≥80 percent against Dermacenter variabilis [8, 16]: prophylactic efficacy
- efficacy ≥80 percent against Dermacenter variabilis [8, 17]: therapeutic efficacy
- efficacy ≥80 percent against Dermacenter variabilis [8, 18]: prophylactic efficacy
- efficacy ≥80 percent against Dermacenter variabilis [8, 19]: prophylactic efficacy
- efficacy ≥80 percent against Dermacenter variabilis [8, 20]: prophylactic efficacy
- efficacy ≥80 percent against Dermacenter variabilis [8, 21]: therapeutic efficacy
- effective in treating existing tick infestations [8, 22]: 100%
- efficacy ≥80 percent against Rhipicephalus appendiculatus [9, 13]: prophylactic efficacy
- efficacy ≥80 percent against Rhipicephalus appendiculatus [9, 14]: prophylactic efficacy
- efficacy ≥80 percent against Rhipicephalus appendiculatus [9, 15]: prophylactic efficacy
- efficacy ≥80 percent against Rhipicephalus appendiculatus [9, 16]: prophylactic efficacy
- efficacy ≥80 percent against Rhipicephalus appendiculatus ([9]; 5 mg/kg subcutaneous, re-infested after 35 days): prophylactic efficacy
- efficacy ≥80 percent against Rhipicephalus appendiculatus [9, 17]: therapeutic efficacy
- efficacy ≥80 percent against Rhipicephalus appendiculatus [9, 18]: prophylactic efficacy
- efficacy ≥80 percent against Rhipicephalus appendiculatus [9, 19]: prophylactic efficacy
- efficacy ≥80 percent against Rhipicephalus appendiculatus [9, 20]: prophylactic efficacy
- efficacy ≥80 percent against Rhipicephalus appendiculatus ([9]; 5 mg/kg topical pour-on, re-infested after 28 days): prophylactic efficacy
- efficacy ≥80 percent against Rhipicephalus appendiculatus ([9]; 5 mg/kg topical pour-on, re-infested after 35 days): prophylactic efficacy
- efficacy ≥80 percent against Rhipicephalus appendiculatus [9, 21]: therapeutic efficacy
- effective in treating existing tick infestations [9, 22]: 100%
